Test: Ames test
Format: cell-based

CS(=O)(=O)c1ccc(C(=O)C2C(=O)CCCC2=O)c([N+](=O)[O-])c1 [Mesotrione, 2-(4-methylsulfonyl-2-nitrobenzoyl)cyclohexane-1,3-dione]
Ames test (Mesotrione made from NMSBA purified by Example 1 (one pot: filtration, activated carbon, hydrolysis at pH 13, crystallization)): negative
Ames test response (Mesotrione made from NMSBA purified by Example 2, both fractions (with carbon and without carbon)): negative
Ames test (Mesotrione made from NMSBA purified by Example 3 (20, 30 and 40% solids loading)): negative
Ames test response (Mesotrione made from NMSBA purified by Example 4 double isolation, fractions (A) and (B)): negative
Ames test result (mesotrione made by the known process from NMSBA starting material containing impurities (not purified)): positive
